Reference: patent publication US20160000702A1, “PHARMACEUTICAL COMPOSITION FOR ENHANCED TRANSMUCOSAL ADMINSTRATION OF BENZODIAZEPINES” (EASTGATE PHARMACEUTICALS INC., priority 2013, published 2016)
≈ marks a conversion by molar mass, not a printed value.

Legend:
[1] = Water solubility of Lorazepam in saline; conditions: saline or isotonic
[2] = test system: PTZ induced seizures; assay: Timed intravenous PTZ infusion test (ivPTZ); type: in vivo, mice; conditions: Lorazepam 2.5 mg/kg (Graph 5)
Excerpt: For investigation of anti-seizure activity of invented formulations, a timed intravenous PTZ infusion test was employed.
The technique of timed i.v. PTZ (pentylenetetrazole) infusion test (ivPTZ) is a simple, reproducible and fast method for assessment of onset, peak, duration and potency of various anticonvulsants and proconvulsants in animals. This test provides an extremely sensitive parametric method for assessing seizure threshold in individual animals and a quantifiable endpoint can be obtained with a minimal number of animals. Different seizure types can be chosen as endpoint in this test. Usually, the first seizure occurring during the PTZ infusion is a myoclonic twitch, followed by clonic and, later, tonic seizures. […]
During the infusion, mice are observed for the onset of different types of seizures. The time latencies from the start of infusion to the appearance of the first clonus (characterized by rapid involuntary rhythmic contraction and relaxation of limbs), lasting longer than 5 seconds, are recorded. […]
The infusion of PTZ will be terminated at 2 min, in case of non-appearance of clonic seizures. For such animals, the dose of PTZ in mg/kg infused during the course of 2 min is calculated as the threshold dose.
The threshold doses of PTZ producing clonic seizures are calculated (in mg/kg) using the following formula: […]

[3] = physchem; conditions: for solubility: oil or lipid
Method: After combining of pre-weighed amounts of components they were gently triturated at room temperature (20-22° C.) using a stainless steel spatula until liquid phase is formed.

[4] = intranasal, human patients, anti-seizure activity; cited from earlier work

Structure (SMILES) | solubility [1] [µg/mL] | Time to maximal protection [2] | solubility ([3]; Lorazepam solubility in MCT with 5% Menthol, MCT oil + 5% Menthol by weight) [µg/mL] | solubility ([3]; Lorazepam solubility in MCT with 8% Menthol, MCT oil + 8% Menthol) [µg/mL] | solubility ([3]; Solubility in capric/caprylic triglycerides (MCT oil), pure MCT oil, RT) [µg/mL] | solubility ([3]; Solubility of Lorazepam in peppermint oil, peppermint oil containing about 45% of menthol) [µg/mL] | Increase of Lorazepam solubility, MCT with 5% Menthol ([3]; versus pure MCT oil) [%] | Increase of Lorazepam solubility, MCT with 8% Menthol ([3]; versus pure MCT oil) [%] | Onset of action [4]
O=C1Nc2ccc(Cl)cc2C(c2ccccc2Cl)=NC1O (stereo not drawn) [Lorazepam] | ~27 (≈ 0.0841 mM) | approximately 5 minutes | 5500 | 6800 | 4300 (≈ 13.4 mM) | 38900 (≈ 121 mM) | 28 | ~60 | –
Cc1ncc2n1-c1ccc(Cl)cc1C(c1ccccc1F)=NC2 [Midazolam] | – | – | – | – | – | – | – | – | approximately 10 minutes
